Experimental data published in ChEMBL document CHEMBL1146560, “The isolation and structure elucidation of Tasiamide B, a 4-amino-3-hydroxy-5-phenylpentanoic acid containing peptide from the marine Cyanobacterium Symploca sp” (J Nat Prod, 2003).
*1 amine or outer side, *2 acyl side, *3 side chain or, on linkers, in order; H or OH if unused. Where a SMILES comes first, the peptide text is derived from it. [ ]: non-standard residue; d: D form. Ahppa(3S,4S) = O=C(C[C@H](O)[C@H](Cc1ccccc1)N[*:1])[*:2]; dNMeF = CN[C@H](Cc1ccccc1)C(=O)O; NMeQ = CN[C@@H](CCC(N)=O)C(=O)O; Lac = C[C@H](O)C(=O)O

Test system: KB
Test: Cytotoxicity against human KB cells
Format: functional, cell-based

COC(=O)[C@@H]1CCCN1C(=O)[C@@H](Cc1ccccc1)N(C)C(=O)[C@H](C)NC(=O)[C@H](CC(C)C)NC(=O)C[C@H](O)[C@H](Cc1ccccc1)NC(=O)[C@H](CCC(N)=O)N(C)C(=O)[C@@H](NC(=O)[C@H](C)O)C(C)C [TASIAMIDE B] (H-[Lac]V[NMeQ][Ahppa(3S,4S)]LA[dNMeF]P-OMe)
IC50: 800 nM
